Drawing on patent US20240294551A1 (AMGEN INC., priority 2022, published 2024), this text covers IC50 for 17 molecules.

Structures are written as SMILES. Read-outs that look alike come from different tables or passages of the source.

Experiment [1] has as its system Phosphorylation of ERK1/2 in AsPC-1 cells. Put plainly: Phospho-ERK1/2 MSD Assay. Type of experiment: cell-based, human. The note with it: read-out: 2 h p-ERK (AsPC-1 cells), IC50. The procedure, abridged:
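Read-out: MSD electrochemiluminescent detection of phosphorylated ERK1/2 in whole-cell lysates, fitted to a 4-parameter logistic curve for IC50. Prior to lysis, AsPC-1 cells (25,000 per well) received a 2 h compound dose-response at 37 °C.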

The next experiment concerns AsPC-1 cells. The experiment can be described thus: AsPC-1 CTG Assay (CellTiter-Glo cell viability). Type of experiment: cell-based, human. Particulars: AsPC-1, 72 h, first value of the cell, read-out: G12D/C/V Cell Proliferation CTG (72 h) AsPC-1. The procedure, abridged:
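Human pancreatic AsPC-1 or colon SW620 cells in RPMI 1640 with 10% FBS, seeded overnight, then exposed to serially diluted compound for 72 h at 37 °C. CellTiter-Glo luminescence normalized to DMSO control; IC50 from a 4-parameter logistic model.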
(In general: In ATP-based viability assays light output follows the ATP content of the culture.)

Experiment [2] deals with His-tagged KRAS G12D protein (Homo sapiens (Human), UniProt P01116, G12D). The experiment can be described thus: KRAS G12D TR-FRET Assay. Type of experiment: binding. Particulars: read-out: KRAS G12D Binding IC50. The procedure, abridged:
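His-tagged KRAS G12D (diluted to 20 nM in pH 7.4 HEPES buffer with 10 mM MgCl2 and 10 μM GDP) was preincubated with titrated compound for 30 min at room temperature. Biotinylated KRPep-2d peptide (diluted to 20 nM) was then added for 1 h, and displacement was monitored by TR-FRET.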
On the technique in general: Time-resolved FRET reads energy transfer from a long-lived donor to a nearby acceptor.

In experiment [3] the target is GDP-bound KRAS protein (aa 1-169), containing both G12D and C118A amino acid substitutions (Homo sapiens (Human), UniProt P01116, C118A/G12D). The experiment can be described thus: KRAS G12D Coupled Nucleotide Exchange Assay. The note with it: read-out: KRAS G12D Coupled Exchange IC50. Type of experiment: biochemical.
Chain of GDP-bound KRAS protein (aa 1-169), containing both G12D and C118A amino acid substitutions (P01116 other isoform, or with tags, fused parts or gaps G12D/C118A): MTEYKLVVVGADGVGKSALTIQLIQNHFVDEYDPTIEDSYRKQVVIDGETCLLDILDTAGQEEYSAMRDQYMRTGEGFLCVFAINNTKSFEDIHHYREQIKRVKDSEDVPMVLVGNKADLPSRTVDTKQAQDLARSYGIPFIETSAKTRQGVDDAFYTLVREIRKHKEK

Chain of His-tagged KRAS G12D protein (P01116 other isoform, or with tags, fused parts or gaps G12D): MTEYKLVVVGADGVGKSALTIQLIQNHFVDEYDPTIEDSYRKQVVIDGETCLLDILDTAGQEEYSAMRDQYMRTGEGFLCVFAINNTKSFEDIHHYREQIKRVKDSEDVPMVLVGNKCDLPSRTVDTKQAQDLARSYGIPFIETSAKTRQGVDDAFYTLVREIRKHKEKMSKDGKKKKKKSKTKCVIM

`Cc1cc2[nH]ncc2c2c1CCCOC(=O)O[C@H]1CN(CC[C@H]1C)c1nc(OC[C@@]34CCCN3C[C@H](F)C4)nc3c(F)c-2ncc13` [Example 94, (17R,18R)-30-fluoro-24-(((2R,7aS)-2-fluorotetrahydro-1H-pyrrolo[1,2-a]pyrrol-7a(5H)-yl)methoxy)-9,18-dimethyl-14,16-dioxa-5,6,21,23,25,29-hexaazahexacyclo[24.3.1.1~17,21~.0~2,10~.0~3,7~.0~22,27~]hentriaconta-1(30),2,4,7,9,22,24,26,28-nonaen-15-one]: the IC50 in experiment [1] (Homo sapiens, ASPC1, 2 h) was found to be 222 nM; in the experiment on AsPC-1 cells (Homo sapiens, ASPC1, 72 h) it was 1000 nM; in experiment [2], 10 nM; in experiment [3], 6 nM.
On to `Cc1cc2[nH]ncc2c2c1CCCC(=O)OCCC1CCCN(C1)c1nc(OC[C@@]34CCCN3C[C@H](F)C4)nc3c(F)c-2ncc13` (some centres unmarked) [Example 105], for which the IC50 in experiment [1] (Homo sapiens, ASPC1, 2 h) is 245 nM; with AsPC-1 cells (Homo sapiens, ASPC1, 72 h), 1940 nM; in experiment [2], 14 nM; in experiment [3] it was 8 nM.
On to `Cc1cc2[nH]ncc2c2c1CCCC(=O)OC[C@@H]1CCCN(C1)c1nc(OC[C@@]34CCCN3C[C@H](F)C4)nc3c(F)c-2ncc13` [Example 106], for which the IC50 in experiment [1] (Homo sapiens, ASPC1, 2 h) turned out to be 29 nM; in the experiment with AsPC-1 cells (Homo sapiens, ASPC1, 72 h), 270 nM; in experiment [2] it was 4 nM; in experiment [3], 1 nM.
For `O=C1OCCC2CCc3cc4[nH]ncc4c(c32)-c2ncc3c(nc(OC[C@@]45CCCN4C[C@H](F)C5)nc3c2F)N2CCC[C@H](C2)O1` (some centres unmarked) [Example 125], in that order: 66 nM, 410 nM, 9 nM and 5 nM.
Take `CN1C(=O)CC[C@@H]2C[C@@H]2c2c(Cl)cc3[nH]ncc3c2-c2ncc3c(nc(OC[C@@]45CCCN4C[C@H](F)C5)nc3c2F)N2CCC[C@@H]1C2` [Example 128, (11S,13R,18R)-9-Chloro-31-fluoro-25-(((2R,7aS)-2-fluorotetrahydro-1H-pyrrolo[1,2-a]pyrrol-7a(5H)-yl)methoxy)-17-methyl-5,6,17,22,24,26,30-heptaazaheptacyclo[25.3.1.1˜18,22˜.0˜2,10˜.0˜3,7˜.0˜11,13˜.0˜23,28˜]dotriaconta-1(31),2,4,7,9,23,25,27,29-nonaen-16-one bis (2,2,2-trifluoroacetate)]: the IC50 in experiment [1] (Homo sapiens, ASPC1, 2 h) worked out at 248 nM; in the experiment with AsPC-1 cells (Homo sapiens, ASPC1, 72 h) it was 1260 nM; in experiment [2], 68 nM; in experiment [3], 46 nM.
Take `Cc1cc2[nH]ncc2c2c1C/C=C/COC[C@@H]1CCCN(C1)c1nc(OC[C@@]34CCCN3C[C@H](F)C4)nc3c(F)c-2ncc13` [Example 130]: the IC50 is 32 nM in experiment [1] (Homo sapiens, ASPC1, 2 h); 230 nM in the experiment with AsPC-1 cells (Homo sapiens, ASPC1, 72 h); 5 nM in experiment [2]; 2 nM in experiment [3].
`Fc1c2ncc3c(nc(OC[C@@]45CCCN4C[C@H](F)C5)nc13)N1CCC[C@@H](COCCCCc3c(Cl)cc4[nH]ncc4c3-2)C1` [Example 138]: the IC50 in experiment [1] (Homo sapiens, ASPC1, 2 h) was 13 nM; in the experiment on AsPC-1 cells (Homo sapiens, ASPC1, 72 h), 5000 nM; in experiment [2] it was 4 nM; in experiment [3], 2 nM.
As for `Fc1c2ncc3c(nc(OC[C@@]45CCCN4C[C@H](F)C5)nc13)N1CCC[C@@H](CCOCCCc3c(Cl)cc4[nH]ncc4c3-2)C1` [Example 139], the IC50 in experiment [1] (Homo sapiens, ASPC1, 2 h) was 114 nM; with AsPC-1 cells (Homo sapiens, ASPC1, 72 h) it was 910 nM; in experiment [2], 6 nM; in experiment [3], 3 nM.
As to `O=S1(=O)CCCCc2c(Cl)cc3[nH]ncc3c2-c2ncc3c(nc(OC[C@@]45CCCN4C[C@H](F)C5)nc3c2F)N2CCC[C@H](C2)C1` [Example 145], the IC50 in experiment [1] (Homo sapiens, ASPC1, 2 h) was 4670 nM; with AsPC-1 cells (Homo sapiens, ASPC1, 72 h), 5000 nM; in experiment [2], 68 nM; in experiment [3], 63 nM.
For `CN1C(=O)CCCc2c(F)ccc3cccc(c23)-c2ncc3c(nc(OC[C@@]45CCCN4C[C@H](F)C5)nc3c2F)N2CCC[C@]1(C)C2` [Example 167, (15R)-22,31-difluoro-8-(((2R,7aS)-2-fluorotetrahydro-1H-pyrrolo[1,2-a]pyrrol-7a(5H)-yl)methoxy)-15,16-dimethyl-3,7,9,11,16-pentaazahexacyclo[19.7.1.1~2,6~.1~11,15~.0~5,10~.0~25,29~]hentriaconta-1(29),2(31),3,5,7,9,21,23,25,27-decaen-17-one], the IC50 in experiment [1] (Homo sapiens, ASPC1, 2 h) was determined as 1590 nM; in the experiment with AsPC-1 cells (Homo sapiens, ASPC1, 72 h), 5000 nM; in experiment [2] it was 44 nM; in experiment [3], 20 nM.
For the molecule `Cc1cc2[nH]ncc2c2c1CCCCC(=O)N[C@H]1CN(C[C@H]3C[C@H]31)c1nc(OC[C@@]34CCCN3C[C@H](F)C4)nc3c(F)c-2ncc13` [Example 171, (26R,27R,29S)-32-fluoro-4-(((2R,7aS)-2-fluorotetrahydro-1H-pyrrolo[1,2-a]pyrrol-7a(5H)-yl)methoxy)-18-methyl-1,3,5,9,14,15,25-heptaazaheptacyclo[24.4.1.1~6,10~.0~2,7~.0~11,19~.0~12,16~.0~27,29~]dotriaconta-2,4,6,8,10(32),11,13,16,18-nonaen-24-one], the IC50 was determined as 106 nM in experiment [1] (Homo sapiens, ASPC1, 2 h); 1090 nM with AsPC-1 cells (Homo sapiens, ASPC1, 72 h); 6 nM in experiment [2]; 4 nM in experiment [3].
As to `O=C1N[C@H]2CN(C[C@H]3C[C@H]32)c2nc(OC[C@@]34CCCN3C[C@H](F)C4)nc3c(F)c(ncc23)-c2c(c(Cl)cc3[nH]ncc23)CCC[C@@H]1F` [Example 175, (23S,26R,27R,29S)-18-chloro-23,32-difluoro-4-(((2R,7aS)-2-fluorotetrahydro-1H-pyrrolo[1,2-a]pyrrol-7a(5H)-yl)methoxy)-1,3,5,9,14,15,25-heptaazaheptacyclo[24.4.1.1~6,10~.0~2,7~.0~11,19~.0~12,16~.0~27,29~]dotriaconta-2,4,6,8,10(32),11,13,16,18-nonaen-24-one], the IC50 in experiment [1] (Homo sapiens, ASPC1, 2 h) is 27.7 nM; in the experiment on AsPC-1 cells (Homo sapiens, ASPC1, 72 h), 123 nM; in experiment [2] it was 5 nM; in experiment [3], 4 nM.
In the case of `O=C1OCCCc2c(Cl)cccc2-c2ncc3c(nc(OC[C@@]45CCCN4C[C@H](F)C5)nc3c2F)N2CCOC[C@H](C2)O1` [Example 186, (23S)-15-chloro-29-fluoro-4-(((2R,7aS)-2-fluorotetrahydro-1H-pyrrolo[1,2-a]pyrrol-7a(5H)-yl)methoxy)-20,22,25-trioxa-1,3,5,9-tetraazapentacyclo[21.4.1.1~6,10~.0~2,7~.0~11,16~]nonacosa-2,4,6,8,10(29),11,13,15-octaen-21-one], the IC50 came to 200 nM in experiment [1] (2 h), 1950 nM in the experiment with AsPC-1 cells, 12 nM in experiment [2] and 9 nM in experiment [3].
For `Cc1cc2[nH]ncc2c2c1CCOC(=O)O[C@H]1C[C@]3(CCCN(C3)c3nc(OC[C@@]45CCCN4C[C@H](F)C5)nc4c(F)c-2ncc34)C1` [Example 193, (1R,3S)-32-fluoro-24-(((2R,7aS)-2-fluorotetrahydro-1H-pyrrolo[1,2-a]pyrrol-7a(5H)-yl)methoxy)-10-methyl-4,6-dioxa-13,14,19,23,25,27-hexaazaheptacyclo[25.3.1.1~1,3~.1~18,22~.0~9,17~.0~12,16~.0~21,26~]tritriaconta-9,11,14,16,18(32),19,21,23,25-nonaen-5-one], the IC50 in experiment [1] (Homo sapiens, ASPC1, 2 h) stood at 23.9 nM; in the experiment with AsPC-1 cells (Homo sapiens, ASPC1, 72 h) it was 60 nM; in experiment [2], 49 nM; in experiment [3], 24 nM.
Consider `Cc1cc2[nH]ncc2c2c1CCCOC(=O)O[C@@H]1CCCCN(C1)c1nc(OC[C@@H]3CCCN3C)nc3c(F)c-2ncc13` [Example 206, (26R)-32-fluoro-18-methyl-4-(((2S)-1-methyl-2-pyrrolidinyl)methoxy)-23,25-dioxa-1,3,5,9,14,15-hexaazahexacyclo[24.4.1.1~6,10~.0~2,7~.0~11,19~.0~12,16~]dotriaconta-2,4,6,8,10(32),11,13,16,18-nonaen-24-one], for which the IC50 is 211 nM in experiment [1] (Homo sapiens, ASPC1, 2 h); 2230 nM in the experiment with AsPC-1 cells (Homo sapiens, ASPC1, 72 h); 14 nM in experiment [2]; 9 nM in experiment [3].
For `CC(=O)n1ncc2c3c(c(Cl)cc21)CCCOC(=O)O[C@@H]1COCCN(C1)c1nc(OC[C@@]24CCCN2C[C@H](F)C4)nc2c(F)c-3ncc12` [Example 213, (26S)-15-Acetyl-18-chloro-32-fluoro-4-(((2R,7aS)-2-fluorotetrahydro-1H-pyrrolo[1,2-a]pyrrol-7a(5H)-yl)methoxy)-23,25,28-trioxa-1,3,5,9,14,15-hexaazahexacyclo[24.4.1.1˜6,10˜.0˜2,7˜.0˜11,19˜.0˜12,16˜]dotriaconta-2,4,6(32),7,9,11,13,16,18-nonaen-24-one], in that order: 4.9 nM, 5 nM, 46 nM and 15 nM.
For `Fc1c2ncc3c(nc(OC[C@@]45CCCN4C[C@H](F)C5)nc13)N1CC(COCCCCc3c(Cl)cc4[nH]ncc4c3-2)CC2(CC2)C1` (some centres unmarked) [Example 228], in that order: 181 nM, 487 nM, 12 nM and 8 nM.
